Test results from ChEMBL document CHEMBL4706474, “Tetrahydro-2-naphthyl and 2-Indanyl Triazolopyrimidines Targeting Plasmodium falciparum Dihydroorotate Dehydrogenase Display Potent and Selective Antimalarial Activity” (J Med Chem, 2016).
In brackets after ≈: the same amount, converted by molar mass.

Columns and labels:
[1] = Inhibition of N-terminal His6-tagged Plasmodium falciparum DHODH expressed in Escherichia coli BL21 using L-DHO as substrate and CoQ as co-substrate by DCIP dye based spectrophotometric assay
[2] = system: Plasmodium falciparum; assay: Antiplasmodial activity against Plasmodium falciparum 3D7 infected in RBC assessed as reduction in parasitemia incubated for 72 hrs by SYBR green dye-based assay; format: functional, organism-based
[3] = biological target: Dihydroorotate dehydrogenase (quinone), mitochondrial (Homo sapiens, UniProt Q02127); assay: Inhibition of N-terminal His6-tagged human DHODH expressed in Escherichia coli BL21 using L-DHO as substrate and CoQ as co-substrate by DCIP dye based spectrophotometric assay
Sequence of Dihydroorotate dehydrogenase (quinone), mitochondrial (Q02127 whole entry): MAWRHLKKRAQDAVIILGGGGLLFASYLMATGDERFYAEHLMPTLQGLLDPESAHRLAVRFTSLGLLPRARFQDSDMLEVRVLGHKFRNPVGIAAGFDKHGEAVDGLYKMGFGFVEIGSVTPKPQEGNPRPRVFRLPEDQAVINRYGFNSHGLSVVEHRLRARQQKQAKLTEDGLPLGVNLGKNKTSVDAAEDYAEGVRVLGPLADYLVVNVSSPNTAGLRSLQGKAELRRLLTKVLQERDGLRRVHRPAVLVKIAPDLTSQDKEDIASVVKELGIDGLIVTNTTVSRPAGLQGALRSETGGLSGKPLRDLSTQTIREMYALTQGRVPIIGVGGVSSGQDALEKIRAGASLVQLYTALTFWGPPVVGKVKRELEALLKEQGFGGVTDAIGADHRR

[4] = Lipophilicity, logD of the compound at pH 7.4; format: physicochemical; details: buffer
[5] = Kinetic solubility of compound in phosphate buffer at pH 6.5 measured after 30 mins by HPLC-UV based analysis; format: physicochemical; details: for solubility kinetic at 0.5 h: phosphate buffer, pH 6.5, read-out: Kinetic_solubility
[6] = Intrinsic clearance in human pooled liver microsomes assessed per mg protein at 1 uM by LC-MS analysis; format: ADME, Microsome; details: microsomes, 1 µM
[7] = Intrinsic clearance in rat liver microsomes assessed per mg protein at 1 uM by LC-MS analysis; format: ADME, Microsome; details: microsomes, 1 µM
[8] = Intrinsic clearance in mouse liver microsomes at 1 uM by LC-MS analysis; format: ADME, Microsome
[9] = Inhibition of N-terminal His6-tagged Plasmodium vivax DHODH expressed in Escherichia coli BL21 using L-DHO as substrate and CoQ as co-substrate by DCIP dye based spectrophotometric assay
[10] = system: Plasmodium falciparum; assay: Antiplasmodial activity against Plasmodium falciparum 3D7 infected in NSG mouse assessed as blood AUC level require to show 90% reduction in parasitemia administered orally on day 3 post-infection QD for 4 days and measured after 24 hrs post dose by LC-MS/MS analysis; format: functional, organism-based; details: time 4.0 day
[11] = system: Plasmodium falciparum; assay: Antiplasmodial activity against Plasmodium falciparum 3D7 infected in po dosed NSG mouse assessed as reduction in parasitemia administered twice daily for 4 consecutive days starting from day 3 post-infection and measured 24 hrs post last dose by flow cytometric analysis; format: functional; details: 3D7, po, 96 h, time 4 day
[12] = system: Plasmodium falciparum; assay: Antiplasmodial activity against Plasmodium falciparum 3D7 infected in po dosed NSG mouse assessed as blood AUC level require to show 90% reduction in parasitemia administered once daily for 4 consecutive days starting from day 3 post-infection and measured 24 hrs post last dose by flow cytometric analysis; format: functional, organism-based; details: time 4.0 day
[13] = Plasmodium falciparum, 3D7, Erythrocyte, 72 h

Row | Compound | IC50 [1] [nM] | EC50 ([2]; rbc) [nM] | IC50 [3] [nM] | EC50 [2, 13] [nM] | logD [4] | solubility kinetic at 0.5 h [5] [µg/mL] | microsomal intrinsic clearance [6] [µL/min] | Intrinsic clearance in rat liver microsomes (uL/min/mg protein) [7] [µL/min] | intrinsic clearance [8] [µL/min] | IC50 [9] [nM] | other results
1 | Cc1cc(NC2CCc3ccc(Br)cc3C2)n2nc(C(C)(F)F)nc2n1 (stereo in doubt; 14) | 640 | 1400 |  |  |  |  |  |  |  |  | 
2 | Cc1cc(NC2Cc3ccccc3C2)n2nc(C(C)(F)F)nc2n1 | 48 |  | > 100000 | 36 | 3.1 | 25 (≈ 75.9 µM) | 24 | 245 | 1004 |  | 
3 | Cc1cc(NC2CCc3ccccc3C2)n2nc(C(F)(F)F)nc2n1 (centres undefined) | 170 |  | > 100000 | 21 |  |  |  |  |  |  | 
4 | Cc1cc(NC2Cc3c(C)ccc(C)c3C2)n2nc(C(C)(F)F)nc2n1 | 14 |  | > 100000 | 0.39 | 3.8 | 6.3 (≈ 17.6 µM) | 168 | 178 | 1000 | 24 | 
5 | Cc1cc(NC2CCc3cc(F)c(F)cc3C2)n2nc(C(C)(F)F)nc2n1 (stereo in doubt; 18) | 2300 | > 2500 |  |  |  |  |  |  |  |  | 
6 | Cc1cc(NC2Cc3ccc(Cl)cc3C2)n2nc(C(C)(F)F)nc2n1 (centres undefined) | 85 |  |  | 120 | 3.5 | 6.3 (≈ 17.3 µM) | 10 | 54 | 43 |  | 
7 | Cc1cc(NC2CCc3cc(Br)ccc3C2)n2nc(C(C)(F)F)nc2n1 (stereo in doubt; 12) | 790 | 140 |  |  |  |  | < 7 |  | 40 | 2100 | Kinetic_solubility ([5]; buffer, pH 6.5, 0.5 h): 3.1 µg/mL
8 | Cc1cc(NC2CCc3cc(F)c(F)cc3C2)n2nc(C(C)(F)F)nc2n1 (stereo in doubt; 19) | 60 | 22 |  |  |  |  | 11 | 24 | 59 | 71 | 
9 | Cc1cc(NC2Cc3c(F)ccc(F)c3C2)n2nc(C(C)(F)F)nc2n1 | 65 |  | > 100000 | 46 | 3.2 | 6.3 (≈ 17.2 µM) | 33 | 1013 | 1500 | 150 | 
10 | Cc1cc(NC2CCc3cc(F)ccc3C2)n2nc(C(C)(F)F)nc2n1 (centres undefined) |  |  | > 100000 |  | 3.5 | 6.3 (≈ 17.4 µM) | 14 | 39 | 122 |  | 
11 | COc1ccc2c(c1)CCC(Nc1cc(C)nc3nc(C(C)(F)F)nn13)C2 (centres undefined) | 140 |  | > 100000 | 17 |  |  |  |  |  | 220 | 
12 | Cc1cc(NC2CCc3cc(Cl)ccc3C2)n2nc(C(C)(F)F)nc2n1 (stereo in doubt) |  |  |  |  |  |  |  |  |  |  | AUCED90 [10]: > 23 µM.hr/day
13 | Cc1cc(NC2Cc3cccc(F)c3C2)n2nc(C(C)(F)F)nc2n1 (centres undefined) | 52 |  | > 100000 | 64 | 3.3 | 12.5 (≈ 36 µM) | 11 | 72 | 76 | 300 | 
14 | COc1ccc2c(c1)CC(Nc1cc(C)nc3nc(C(C)(F)F)nn13)CC2 (stereo in doubt; 17) | 1000 | 640 |  |  |  |  |  |  |  |  | 
15 | Cc1cc(NC2Cc3ccc(S(C)(=O)=O)cc3C2)n2nc(C(C)(F)F)nc2n1 (centres undefined) | 4000 |  |  | 6500 |  |  |  |  |  |  | 
16 | Cc1cc(NC2CCc3cc(F)c(C(F)(F)F)cc3C2)n2nc(C(C)(F)F)nc2n1 (centres undefined) | 89 |  | > 100000 | 97 | 4 | 3.1 (≈ 7.22 µM) | < 7 | 13 | 17 | 390 | 
17 | Cc1cc(NC2CCc3ccc(Cl)cc3C2)n2nc(C(F)(F)F)nc2n1 (stereo in doubt; 25) | 1100 | 1500 |  |  |  |  |  |  |  |  | 
18 | Cc1cc(NC2Cc3cc(Cl)c(Cl)cc3C2)n2nc(C(C)(F)F)nc2n1 | 140 |  |  | 580 |  |  |  |  |  |  | 
19 | Cc1cc(NC2CCc3cc(C(F)(F)F)c(F)cc3C2)n2nc(C(C)(F)F)nc2n1 (centres undefined) | 87 |  | > 100000 | 3300 | 4.1 | 1.6 (≈ 3.73 µM) | < 7 | < 7 | < 7 | 820 | 
20 | Cc1cc(NC2CCc3cc(Cl)ccc3C2)n2nc(C(C)(F)F)nc2n1 (stereo in doubt; 8) | 1340 | 420 |  |  |  |  |  |  |  |  | 
21 | Cc1cc(N[C@@H]2CCc3ccc(Cl)cc3C2)n2nc(C(C)(F)F)nc2n1 | 790 |  | > 100000 | 2800 |  |  |  |  |  |  | 
22 | Cc1cc(NC2CCc3ccc(Cl)cc3C2)n2nc(C(F)(F)F)nc2n1 (stereo in doubt; 24) | 15 | 33 |  |  | 4.1 | 1.6 (≈ 4.19 µM) | 9 |  | 24 |  | 
23 | Cc1cc(NC2Cc3ccc(Br)cc3C2)n2nc(C(C)(F)F)nc2n1 (centres undefined) | 110 |  |  | 590 |  |  |  |  |  |  | 
24 | COc1ccc2c(c1)CC(Nc1cc(C)nc3nc(C(C)(F)F)nn13)CC2 (stereo in doubt; 16) | 21 | 25 |  |  | 3.3 | 12.5 (≈ 33.5 µM) | 18 | 19 | 25 | 130 | 
25 | Cc1cc(NC2CCc3cc(F)ccc3C2)n2nc(C(F)(F)F)nc2n1 (centres undefined) | 77 |  |  | 66 |  |  |  |  |  | 280 | 
26 | Cc1cc(NC2Cc3cccc(C(F)(F)F)c3C2)n2nc(C(C)(F)F)nc2n1 (centres undefined) | 66 |  | > 100000 | 4.3 | 3.7 | 6.3 (≈ 15.9 µM) | 30 | 61 | 119 | 280 | 
27 | Cc1cc(NC2Cc3cc(F)c(F)cc3C2)n2nc(C(F)(F)F)nc2n1 | 120 |  |  | 150 |  |  |  |  |  |  | 
28 | Cc1cc(NC2Cc3ccc(S(=O)(=O)N(C)C)cc3C2)n2nc(C(C)(F)F)nc2n1 (centres undefined) | 8000 |  |  |  |  |  |  |  |  |  | 
29 | Cc1cc(NC2CCc3ccccc3C2)n2nc(C(C)(F)F)nc2n1 (centres undefined) | 21 |  |  | 2.8 |  |  |  |  |  | 35 | 
30 | CCN(CC)CCCC(C)Nc1ccnc2cc(Cl)ccc12 (centres undefined) [CHLOROQUINE] |  |  |  |  |  |  |  |  |  |  | ED90 [11]: 4.3 mg/kg; AUCED90 [12]: 3.1 µM.hr/day
